{"source": "patent US6339081B1", "about": "“Composition and use” (priority 1996, dated 2002)", "assay_type_in_all_cases": "cell-based", "key": {"[1]": {"tested_on": "Pseudomonas aeruginosa NCIB 10421", "test": "MIC and Fractional Inhibitory Concentration (FIC) in microtitre array", "protocol": "The gram negative bacterium, Pseudomonas aeruginosa NCIB 10421 was grown in nutrient broth to stationary phase during 18 hours and contained approximately 10^9 organisms/ml. A 0.1% (v/v) inoculum was used to seed fresh nutrient broth and 100 μl was then added to each well of a microtitre plate, except for the first well which contained 200 μl.\nSolutions of zinc acetate (ZnAc) and the 2:1 zinc complex of 3-hydroxy-4-methylthiazol-2(3H)-thione (ZHMT), respectively, were prepared in nutrient broth at twice the final concentration to be used in the microtitre array. A microtitre array was prepared with concentration of zinc acetate and ZHMT from twice the MIC down to zero concentration in a 10×10 array. Since the array contains only 96 wells, the highest and lowest concentration of the zinc acetate and ZHMT were omitted. The dilution of the ZHMT was doubled across the ordinate axis of the array by transferring 100 μl aliquots so that the final volume in each well was 200 μl. The microtitre plate was then incubated for 16 to 24 hours at 37° C. and the presence of bacterial growth assessed visually.\nThe FIC is defined as the sum of the fractional inhibitory concentration of each component. The FIC of the individual component is the ratio of the concentration of the component in the binary mixture divided by its MIC."}, "mixed bacterial culture": {"tested_on": "mixed bacterial culture", "test": "Preservation of unpreserved latex, repeated challenge with mixed bacterial culture", "set-up": "key to Viable bacteria, Third inoculum (days) 5 / Viable bacteria, Third inoculum (days) 7 / Viable bacteria, First inoculum (days) 3 / Viable bacteria, First inoculum (days) 5 / Viable bacteria, First inoculum (days) 7 / Viable bacteria, Second inoculum (days) 3 / Viable bacteria, Second inoculum (days) 5 / Viable bacteria, Second inoculum (days) 7 / Viable bacteria, Third inoculum (days) 3: C is confluent growth over the surface; − is no visible colonies; + is few visible colonies; ++ is clusters of discreet colonies", "conditions": "for Viable bacteria, First inoculum (days) 3 / Viable bacteria, First inoculum (days) 5 / Viable bacteria, First inoculum (days) 7 / Viable bacteria, Second inoculum (days) 3 / Viable bacteria, Second inoculum (days) 5 / Viable bacteria, Second inoculum (days) 7 / Viable bacteria, Third inoculum (days) 3 / Viable bacteria, Third inoculum (days) 5 / Viable bacteria, Third inoculum (days) 7: latex, Amount 200 ppm of each component present; for antimicrobial activity in latex: zinc salt alone, 200 ppm (Table 1)", "protocol": "Aliquots (25 parts) of unpreserved latex containing 50% by weight solids of a copolymer of 2-ethylhexylacrylate/acrylic acid at pH 8.5 were formulated with zinc acetate and the 2:1 zinc complex of 3-hydroxy4-methyl thiazol-2(3H)-thione in the amounts shown in Table 1 below. After formulation, each aliquot was stored at 20° C. for 1 week prior to inoculation with a mixed bacterial culture.\nThe bacterial culture was prepared by culturing the following seven bacteria in nutrient agar for 24 hours at 30° C.\nEach of the individual bacterium was prepared at a concentration of 10^8 cells/ml in quarter strength Ringers solution by means of a Thoma counting chamber. The mixed inoculum was prepared by mixing equal volumes of the cultures containing the individual bacterium.\nThe latex aliquots were repeatedly inoculated at 0, 7 and 14 day intervals with 0.5 ml mixed inoculum (2×10^6 cells/ml) and incubated at 30° C. The number of viable bacteria was determined by streaking a small portion of each aliquot of latex onto nutrient agar after 3, 5 and 7 days followed by visible assessment after incubation for 2 days at 30° C."}, "[2]": {"tested_on": "contaminated matt paint millbase", "test": "Viable cells in contaminated matt paint millbase", "protocol": "25 ml Aliquots of a contaminated matt paint millbase were formulated with the 2:1 zinc complex of 3-hydroxy-4-methylthiazol-2(3H)-thione and zinc acetate as shown in Table 2 below. The number of variable cells was determined by streaking a small portion of each aliquot of millbase onto nutrient agar after 5, 7 and 14 days. The number of cells was determined by visible assessment following incubation for 2 days at 30° C."}, "[3]": {"conditions": "ZnAc replaced by the same weight of the metal salt"}}, "note": "Read-outs that look alike come from different tables or passages of the source.", "data": [{"molecule": "[O-]n1ccccc1=S.[O-]n1ccccc1=S.[Zn+2]", "note": "[2:1 zinc complex of 1-hydroxypyridine-2-thione]", "values": [{"measurement": "synergy with ZnAc", "setting": "[1]; ZHMT replaced by this complex", "result": "no synergy"}]}, {"molecule": "CC(=O)[O-].CC(=O)[O-].[Zn+2]", "note": "[ZA, zinc acetate]", "values": [{"measurement": "Viable bacteria, First inoculum (days) 3", "setting": "mixed bacterial culture", "result": "−"}, {"measurement": "Viable bacteria, First inoculum (days) 5", "setting": "mixed bacterial culture", "result": "−"}, {"measurement": "Viable bacteria, First inoculum (days) 7", "setting": "mixed bacterial culture", "result": "−"}, {"measurement": "Viable bacteria, Second inoculum (days) 3", "setting": "mixed bacterial culture", "result": "++"}, {"measurement": "Viable bacteria, Second inoculum (days) 5", "setting": "mixed bacterial culture", "result": "++"}, {"measurement": "Viable bacteria, Second inoculum (days) 7", "setting": "mixed bacterial culture", "result": "++"}, {"measurement": "Viable bacteria, Third inoculum (days) 3", "setting": "mixed bacterial culture", "result": "++"}, {"measurement": "Viable bacteria, Third inoculum (days) 5", "setting": "mixed bacterial culture", "result": "++"}, {"measurement": "Viable bacteria, Third inoculum (days) 7", "setting": "mixed bacterial culture", "result": "++"}, {"measurement": "antimicrobial activity in latex", "setting": "mixed bacterial culture", "result": "no antimicrobial activity"}, {"measurement": "effect on activity of the metal complex", "setting": "[2]", "result": "increases the bacterial activity of the metal complex"}, {"measurement": "FIC", "setting": "[1]", "result": 1}, {"measurement": "Minimum Inhibitory Concentrations (MIC)", "setting": "[1]", "result": 250, "unit": "ppm"}]}, {"molecule": "[Cl-].[Cl-].[Zn+2]", "note": "[ZC, zinc chloride]", "values": [{"measurement": "Viable bacteria, First inoculum (days) 3", "setting": "mixed bacterial culture", "result": "+"}, {"measurement": "Viable bacteria, First inoculum (days) 5", "setting": "mixed bacterial culture", "result": "−"}, {"measurement": "Viable bacteria, First inoculum (days) 7", "setting": "mixed bacterial culture", "result": "−"}, {"measurement": "Viable bacteria, Second inoculum (days) 3", "setting": "mixed bacterial culture", "result": "++"}, {"measurement": "Viable bacteria, Second inoculum (days) 5", "setting": "mixed bacterial culture", "result": "++"}, {"measurement": "Viable bacteria, Second inoculum (days) 7", "setting": "mixed bacterial culture", "result": "++"}, {"measurement": "Viable bacteria, Third inoculum (days) 3", "setting": "mixed bacterial culture", "result": "C"}, {"measurement": "Viable bacteria, Third inoculum (days) 5", "setting": "mixed bacterial culture", "result": "C"}, {"measurement": "Viable bacteria, Third inoculum (days) 7", "setting": "mixed bacterial culture", "result": "C"}, {"measurement": "antimicrobial activity in latex", "setting": "mixed bacterial culture", "result": "no antimicrobial activity"}]}, {"molecule": "[Cl][Cu][Cl]", "note": "[cupric chloride]", "values": [{"measurement": "synergy with ZHMT", "setting": "[1]; [3]", "result": "no synergy"}]}, {"molecule": "[Cl][Fe]([Cl])[Cl]", "note": "[ferric chloride]", "values": [{"measurement": "effect on the ZHMT", "setting": "[1]; ZnAc replaced with half the weight of the metal salt", "result": "antagonistic effect"}]}, {"molecule": "[Cl-].[Cl-].[Mg+2]", "note": "[magnesium chloride]", "values": [{"measurement": "synergy with ZHMT", "setting": "[1]", "result": "no synergy"}]}, {"molecule": "manganese chloride", "values": [{"measurement": "synergy with ZHMT", "setting": "[1]; [3]", "result": "no synergy"}]}]}
